Assay results as given in patent US7815918B2, “Polypeptides and immunogenic conjugates capable of inducing antibodies against pathogens, and uses thereof” (priority 2003, dated 2010).
Entries after “also recorded” stand apart in the source; their conditions may differ. Ends that are not written are not given here.

Legend:
mAb 4F11(G1) [1] = test: Western blot of purified recombinant thioredoxin fusion proteins probed with mAb 4F11; type: binding, mouse; settings: for reactivity with mAb 4F11 in Western blot: purified thioredoxin fusion protein separated by SDS-PAGE
Excerpt: MAb 4F11 was produced as described (Lee et al., “Molecular Characterization of KEX1, a Kexin-Like Protease in Mouse Pneumocystis carinii,” Gene 242:141-150 (2000), which is hereby incorporated by reference in its entirety). For colony immunoscreens and P. carinii immunofluorescence assays (IFAs), mAb 4F11 IgM ascites fluid was used at a 1:5000 dilution. For enzyme-linked immunosorbent assays (ELISA) and Western blots of purified recombinant proteins an IgG1 switch-variant of mAb 4F11(G1) (Gigliotti et al., “Passive Intranasal Monoclonal Antibody Prophylaxis Against Murine Pneumocystis carinii Pneumonia,” Infect. Immun. 70:1069-1074 (2002), which is hereby incorporated by reference in its entirety) was prepared by saturated ammonium sulfate precipitation of tissue culture supernatant and used at the indicated dilutions. MAb 2B5 is an IgG1 that recognizes a mouse P. carinii gpA (Gigliotti et al., “Antibody-Mediated Shift in the Profile of Glycoprotein A Phenotypes Observed in a Mouse Model of Pneumocystis carinii Pneumonia,” Infect. Immun. 64:1892-1899 (1996), which is hereby incorporated by reference in its entirety) and was used as a negative control in S. pneumoniae immunoblots and IFAs. MAb 1C7 is an anti-mouse P. carinii IgM used as an isotype control in IFAs against P. carinii derived from different hosts. Pooled hyperimmune sera against mouse P. carinii was obtained as described previously (Gigliotti et al., “Development of Murine Monoclonal Antibodies to Pneumocystis carinii,” J. Infect. Dis. 154:315-322 (1986), which is hereby incorporated by reference in its entirety).
To confirm reactivity of E. coli pSCREEN transformants with mAb 4F11, 5 mL overnight cultures were pelleted and resuspended in 200 μL of 1× Laemmli SDS running/sample buffer+5% β-mercaptoethanol, and 20 μL samples were separated on NuPAGE Bis-Tris 4-12% gels (Invitrogen) by SDS-PAGE. S. pneumoniae from blood agar plates was grown in 5 mL THY overnight, 1 mL aliquots were pelleted, resuspended in 200 μL 1× sample buffer, and 20 μL were resolved by SDS-PAGE. Purified recombinant protein was suspended in sample buffer in equal concentrations and separated as described for cell lysates. Western blots were performed as previously described (Lee et al., “Molecular Characterization of KEX1, a Kexin-Like Protease in Mouse Pneumocystis carinii,” Gene 242:141-150 (2000), which is hereby incorporated by reference in its entirety).
Production of 6×His-tagged thioredoxin fusion proteins using the pBADTHIO expression system in E. coli was performed following the manufacturer's instructions. Briefly, overnight cultures were diluted 1:40 in fresh LB+100 μg/mL ampicillin and grown at 37° C. with shaking to absorbance at 600 nm of approximately 0.5. For fusion protein induction, arabinose was added to a final concentration of 0.02% and cultures were grown an additional 5 hr at 37° C. with shaking. Cells were pelleted by centrifugation at 1000×g then resuspended in ⅕ original culture volume with lysis buffer (50 mM sodium phosphate, 6 M guanidine-HCl, 300 mM NaCl) and vortexed vigorously. Debris was pelleted by centrifugation at 10,000×g at 4° C. The supernatants were passed over a TALON affinity resin column (BD Biosciences, Palo Alto, Calif.) that had been pre-equilibrated with lysis buffer. The columns were then washed twice with 10 mL 50 mM sodium phosphate, 300 mM NaCl. The fusion proteins were eluted with 2 mL buffer containing 50 mM sodium phosphate, 300 mM NaCl, and 150 mM imidazole. The eluted protein was dialyzed overnight against PBS at 4° C. and concentrated by vacuum centrifugation. Protein concentrations were determined using a BCA microwell assay kit (Pierce, Rockford, Ill.).

mAb 4F11(G1) [2] = test: ELISA of epitope-thioredoxin fusion constructs using mAb 4F11(G1); type: binding, mouse
Description: (§1) Purified recombinant protein at a concentration of 10 μg/mL in 50 mM carbonate-bicarbonate buffer pH 9.5+0.1% SDS was used to coat Costar ELISA plates (Corning Incorporated, Corning, N.Y.) 16-20 hr at 37° C. The plates were blocked with 3% BSA-TBST for 1 hr at 4° C. Primary antibody was added in two-fold serial dilutions in 3% BSA-TBST and incubated at 4° C. for 1 hr. Goat anti-mouse IgG+IgM-alkaline phosphatase conjugate secondary antibody was added at 1:5000 dilution in BSA-TBST for one hr at 4° C. Blue Phos substrate (KPL, Gaithersburg Md.) was added for 30 min, color development was stopped with 2.5% EDTA, and absorbance was read at 655 nm using a Benchmark microplate reader (Bio-Rad).
Experimental ELISA results were statistically compared to the control values using a two-tailed Student's t test. Results were considered significant if p≦0.05.

[3] = target: 4F11(G1) binding against plate-bound sonicated mouse P. carinii; test: Competitive (inhibition) ELISA: synthetic peptides as soluble competitors for 4F11(G1) binding to plate-bound sonicated mouse P. carinii
Excerpt: FIGS. 5A-F show the analysis of purified recombinant epitope-thioredoxin fusion proteins. FIG. 5A is a gel stained with Coomassie Blue. FIG. 5B is a Western blot using mAb 4F11(G1). FIG. 5C is a Western blot using anti-V5 epitope tag mAb. FIG. 5D is an ELISA of epitope-thioredoxin fusion constructs using mAb 4F11(G1). Results are plotted as the mean±standard error of triplicate experiments. […] Results are plotted as the mean±standard deviation of triplicate experiments. […] Results are plotted as the mean±standard deviation of triplicate experiments. The dashed line indicates the mean absorbance at 655 nm with no inhibitor and a 4F11(G1) dilution of 1:3200.
(§2) Mouse P. carinii Kexin 777-787 (RPAPPKPTPQP, SEQ ID NO: 56) and Kexin 131-142 (SGDTGNVNSGEK, SEQ ID NO: 57) peptides were purchased from Alpha Diagnostics (San Antonio, Tex.). ELISA experiments using the synthetic peptides were performed as described above, using 10 μg peptide/mL in carbonate-bicarbonate buffer to coat the plates. For competitive ELISA studies peptides were incubated at three fold dilutions with a starting concentration of 100 μg/mL for 2 hr with a 1:3200 dilution of mAb 4F11 at 4° C. to reach equilibrium. Mouse P. carinii sonicates in carbonate-bicarbonate buffer were used to coat ELISA plates at the equivalence of 4×10^4 cysts per well overnight at 4° C. The peptide-antibody mixtures, or antibody alone at 1:3200 dilution, were used as the primary antibody in the ELISA following the above protocol.

mAb 4F11(G1) [4] = test: ELISA of synthetic P. carinii peptides using mAb 4F11(G1); type: binding, mouse; settings: 10 μg peptide/mL coat, no fusion partner
Description: as §1
as §2, with “The peptide-antibody mixtures, or antibody alone at 1:3200 dilution, were used as the primary antibody in the ELISA following the above protocol.” left out

[5] = system: hyperimmune sera from mice immunized with whole P. carinii; test: Western blot of A12 fusion protein with hyperimmune sera from P. carinii-immunized mice; type: binding, mouse
Excerpt: MAb 4F11 was produced as described (Lee et al., “Molecular Characterization of KEX1, a Kexin-Like Protease in Mouse Pneumocystis carinii,” Gene 242:141-150 (2000), which is hereby incorporated by reference in its entirety). For colony immunoscreens and P. carinii immunofluorescence assays (IFAs), mAb 4F11 IgM ascites fluid was used at a 1:5000 dilution. For enzyme-linked immunosorbent assays (ELISA) and Western blots of purified recombinant proteins an IgG1 switch-variant of mAb 4F11(G1) (Gigliotti et al., “Passive Intranasal Monoclonal Antibody Prophylaxis Against Murine Pneumocystis carinii Pneumonia,” Infect. Immun. 70:1069-1074 (2002), which is hereby incorporated by reference in its entirety) was prepared by saturated ammonium sulfate precipitation of tissue culture supernatant and used at the indicated dilutions. MAb 2B5 is an IgG1 that recognizes a mouse P. carinii gpA (Gigliotti et al., “Antibody-Mediated Shift in the Profile of Glycoprotein A Phenotypes Observed in a Mouse Model of Pneumocystis carinii Pneumonia,” Infect. Immun. 64:1892-1899 (1996), which is hereby incorporated by reference in its entirety) and was used as a negative control in S. pneumoniae immunoblots and IFAs. MAb 1C7 is an anti-mouse P. carinii IgM used as an isotype control in IFAs against P. carinii derived from different hosts. […]

[6] = at lower mAb 4F11 dilutions, plate coated 10 μg/mL

Molecule: K70PRPQPTP77 (KPRPQPTP; not fully specified; printed as K70PRPQPTP77) [A1270-77]
- reactivity with mAb 4F11 in Western blot (mAb 4F11(G1) [1]): positive reactivity

Molecule: E46PRPQPTS53 (EPRPQPTS; not fully specified; printed as E46PRPQPTS53) [A1246-53]
- reactivity with mAb 4F11 in Western blot (mAb 4F11(G1) [1]): do not react with mAb 4F11

Molecule: E54PQPQPAP61 (EPQPQPAP; not fully specified; printed as E54PQPQPAP61) [A1254-61]
- reactivity with mAb 4F11 in Western blot (mAb 4F11(G1) [1]): do not react with mAb 4F11

Molecule: thioredoxin fusion partner: thioredoxin fusion partner alone, negative control for the fusion constructs [reference compound]
- reactivity with mAb 4F11 in Western blot (mAb 4F11(G1) [1]): does not react with mAb 4F11; also recorded: did not react with mAb 4F11
- reactivity with mAb 4F11 in Western blot (mAb 4F11(G1) [1]; listed as fusion partner): did not react with mAb 4F11

Molecule: K865PAPKPAP872 (KPAPKPAP; not fully specified; printed as K865PAPKPAP872) [Kexin865-872]
- reactivity with mAb 4F11 in Western blot (mAb 4F11(G1) [1]): positive reactivity

Molecule: R777PAPPKPTPQP787 [Kexin777-787]
- ELISA reactivity with mAb 4F11 (mAb 4F11(G1) [2]; at higher mAb 4F11 dilutions): greater reactivity with mAb 4F11 than did the original 17mer epitope
- ELISA reactivity with mAb 4F11 (mAb 4F11(G1) [2]; [6]): highest reactivity
- 50% inhibition of binding of mAb 4F11 to native P. carinii antigens ([3]; 4F11(G1) diluted 1:3200): 150 ng/mL
- concentration that completely blocks binding of mAb 4F11 to native P. carinii antigens ([3]; 4F11(G1) diluted 1:3200): 1 µg/mL
- binding with mAb 4F11 compared with Kexin856-872, based on size and intensity of the Western blot band (mAb 4F11(G1) [1]; 1 μg purified protein): enhanced binding

Molecule: K856PAPKPTP863 (KPAPKPTP; not fully specified; printed as K856PAPKPTP863) [Kexin856-863]
- reactivity with mAb 4F11 in Western blot (mAb 4F11(G1) [1]): positive reactivity

Molecule: RPAPPKPTPQP [Kex777-787]
- ELISA reactivity of synthetic peptide to mAb 4F11 (mAb 4F11(G1) [4]): high reactivity

Molecule: K856PAPKPTPPKPAPKPAP872 (KPAPKPTPPKPAPKPAP; not fully specified; printed as K856PAPKPTPPKPAPKPAP872) [Kexin856-872]
- ELISA reactivity with mAb 4F11 (mAb 4F11(G1) [2]; [6]): highest reactivity

Molecule: K62PRPQPTSKPRPQPTP77 (KPRPQPTSKPRPQPTP; not fully specified; printed as K62PRPQPTSKPRPQPTP77) [A1262-77]
- ELISA reactivity to mAb 4F11 (mAb 4F11(G1) [2]; at 1:800 or greater dilution): only background reactivity
- ELISA reactivity with mAb 4F11 (mAb 4F11(G1) [2]; [6]): lower reactivity, but significantly higher than the thioredoxin fusion partner alone

Molecule: SGDTGNVNSGEK [Kex131-142, reference compound]
- inhibition of binding of mAb 4F11 to native P. carinii antigens ([3]; at the highest concentration tested): no inhibition
- ELISA reactivity of synthetic peptide to mAb 4F11 (mAb 4F11(G1) [4]): did not react

B1: A121-142: truncated A12 molecule, residues 1-142 of SEQ ID NO: 5, expressed as thioredoxin fusion protein (protein)
chain: TNISEPALPDKDPQPTSSPQPKPRPRPRPQPQPHPHPKPQPQPTPEPQPQPAPEPRPQPTSKPRPQPTSKPRPQPTPEPRPLPVPGPGPLPVPGPRPQPQPQPQPQPQPQPQPQPQPQPQPQPQPQPQPQPKPQPPSQSTSE
modifications: thioredoxin fusion partner
- reactivity with mAb 4F11 in Western blot (mAb 4F11(G1) [1]): reacted with mAb 4F11

B2: URSP2 PspA: recombinant thioredoxin fusion protein containing the α-helical domain, clade defining region and proline-rich repeat region of URSP2 PspA (protein)
chain: EKELKEIDESDSEDYIKEGLRAPLQSKLDAKKAKLSKLEELSDKIDELDAEIAKLEKDVEDFKNSDGEQAEQYLVAAKKDLDAKKAELENTEADLKKAVDEPETPAPAPKPAPAPAPTPEAPAPAPKPAPAPKPAPAPAPTPEAPAPAPKPAPAPKPAPAPAPTPEAPAPAPKPAPAPRPAPAPKPAPDPKP
modifications: left off: large carriers
- reactivity with mAb 4F11 in Western blot (mAb 4F11(G1) [1]): shown to react with mAb 4F11

B3: A121-82: truncated A12 molecule, residues 1-82 of SEQ ID NO: 5, expressed as thioredoxin fusion protein (protein)
chain: TNISEPALPDKDPQPTSSPQPKPRPRPRPQPQPHPHPKPQPQPTPEPQPQPAPEPRPQPTSKPRPQPTSKPRPQPTPEPRPL
modifications: thioredoxin fusion partner
- reactivity with mAb 4F11 in Western blot (mAb 4F11(G1) [1]): reacted with mAb 4F11
- reactivity with hyperimmune sera in Western blot [5]: reacted with hyperimmune sera
